In patent US20100152102A1, “USE OF SO[…] ONE OF ITS ANALOGUES FOR PREPARING A […] TO REGULATE THE OVARIAN […] IN NON-[…]” (Preglem S.A., priority 2003, published 2010):
[ ]: non-standard residue; d: D form. Tic = O=C(O)[C@@H]1Cc2ccccc2CN1; Abu = CC[C@H](N)C(=O)O

Columns and labels:
antral follicles = assay: envisaged case: patient with polycystic ovary syndrome treated with lanreotide acetate; assay type: in vivo, women; conditions: 120 mg/month, 4th month of treatment
[1] = tested on: primordial follicles of ewe ovarian cortex; assay: culture of ovarian cortex fragments of adult ewes for 10 days; assay type: cell-based; conditions: 10 days culture; for start of growth of the primordial follicles: vs control (FIG. 3)
Protocol: Ovaries of adult ewes are collected immediately after slaughter. The ovaries are placed in an organ transport medium without serum (X-vivo, Bio Whittaker, Walkersville, Md., USA) at 10° C. and transported to the laboratory. Approximately 1 h after removal, the cortex is isolated from the medulla then fractionated into slices of 2 mm thickness (1 cm^2, average weight of 212 mg) after rinsing in new X-vivo. The cortex fragments are cultured in an oven under 5% oxygen for 10 days in well plates in the presence of DMEM. The medium is changed every 2 days.
The procedure used is the same as for Example 1, except that the somatostatin is replaced with one of its agonist analogues, namely the synthetic peptide of formula c[Tic-Tyr-DTrp-Lys-Abu-Phe] (hereafter AG1 peptide).
The procedure used is the same as for Example 1, except that the somatostatin is replaced by one of its antagonist analogues, namely the synthetic peptide of formula Cpa-c(DCys-3-Pal-DTrp-NMeLys-Thr-Cys)-2-Nal-NH2 (hereafter ANT1 peptide).

CC(C)[C@@H]1NC(=O)[C@H](CCCCN)NC(=O)[C@@H](Cc2c[nH]c3ccccc23)NC(=O)[C@H](Cc2ccc(O)cc2)NC(=O)[C@@H](NC(=O)[C@H](N)Cc2ccc3ccccc3c2)CSSC[C@@H](C(=O)N[C@H](C(N)=O)[C@@H](C)O)NC1=O [lanreotide acetate] was tested, and the “ultrasound of the ovaries: ovarian volume and number of antral follicles” value (antral follicles) was “reduction in ovarian volume and in the number of antral follicles”.

With “Cpa-c(DCys-3-Pal-DTrp-NMeLys-Thr-Cys)-2-Nal-NH2 [ANT1 peptide]” the “start of growth of the primordial follicles” value ([1]; ANT1 peptide 10^−6M, FIG. 5) was “accentuates”.

cyclo([Tic]Y[dW]K[Abu]F) [AG1 peptide] was tested, and the “number of primary follicles” value ([1]; AG1 peptide 10^−9M, FIG. 4) was “absence of increase”, the “number of primordial follicles” value ([1]; AG1 peptide 10^−9M, FIG. 4) was “maintenance over time” and the “start of growth of the primordial follicles” value ([1]; AG1 peptide 10^−9M, FIG. 4) was “very significantly inhibits”.
